According to the supplement of paper PMC10307832:

What was measured:
Assay in all cases: relative viability (nuclei count vs DMSO), 5 days (fraction); higher = more cells survive
BAM7 + Olaparib = compound: CCOC1=CC=CC=C1N=NC2=C(NN(C2=O)C3=NC(=CS3)C4=CC=CC=C4)C [BAM7] + O=C(c1cc(Cc2n[nH]c(=O)c3ccccc23)ccc1F)N1CCN(C(=O)C2CC2)CC1 [Olaparib] (partner 8 µM)
Summary of the method: (§1)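 Nuclei were stained with Hoechst during a one-step fixation (final 0.05% Triton X-100, 1% formaldehyde, 1 ug/ml Hoechst) carried out 5 days after dosing, then counted on 4× images. The cells, lung cancer lines in 1536-well plates, had been dosed by pin tool the day after seeding with one drug alone or a fixed anchor-drug dose plus five library-drug doses (not always all listed) in √10 steps. Relative viability is the nuclei count in treated wells divided by that in vehicle wells, and each value is the median of duplicate plates.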

BAM7 + Linsitinib = compound: CCOC1=CC=CC=C1N=NC2=C(NN(C2=O)C3=NC(=CS3)C4=CC=CC=C4)C [BAM7] + C[C@]1(O)C[C@@H](c2nc(-c3ccc4ccc(-c5ccccc5)nc4c3)c3c(N)nccn32)C1 [Linsitinib] (partner 1 µM)
Summary of the method: as §1

BAM7 + Lapatinib = compound: CCOC1=CC=CC=C1N=NC2=C(NN(C2=O)C3=NC(=CS3)C4=CC=CC=C4)C [BAM7] + CS(=O)(=O)CCNCc1ccc(-c2ccc3ncnc(Nc4ccc(OCc5cccc(F)c5)c(Cl)c4)c3c2)o1 [Lapatinib] (partner 2 µM)
Summary of the method: as §1

BAM7 + Bortezomib = compound: CCOC1=CC=CC=C1N=NC2=C(NN(C2=O)C3=NC(=CS3)C4=CC=CC=C4)C [BAM7] + CC(C)C[C@H](NC(=O)[C@H](Cc1ccccc1)NC(=O)c1cnccn1)B(O)O [Bortezomib] (partner 0.002 µM)
Summary of the method: as §1

BAM7 + Tozasertib = compound: CCOC1=CC=CC=C1N=NC2=C(NN(C2=O)C3=NC(=CS3)C4=CC=CC=C4)C [BAM7] + Cc1cc(Nc2cc(N3CCN(C)CC3)nc(Sc3ccc(NC(=O)C4CC4)cc3)n2)n[nH]1 [Tozasertib] (partner 0.1 µM)
Summary of the method: as §1

Cell Line | relative viability (BAM7 + Olaparib; first compound 0.5 µM) | relative viability (BAM7 + Olaparib; first compound 5 µM) | relative viability (BAM7 + Olaparib; first compound 15.81 µM) | relative viability (BAM7 + Olaparib; first compound 50 µM) | relative viability (BAM7 + Linsitinib; first compound 0.5 µM) | relative viability (BAM7 + Linsitinib; first compound 5 µM) | relative viability (BAM7 + Linsitinib; first compound 15.81 µM) | relative viability (BAM7 + Linsitinib; first compound 50 µM) | relative viability (BAM7 + Lapatinib; first compound 0.5 µM) | relative viability (BAM7 + Lapatinib; first compound 5 µM) | relative viability (BAM7 + Lapatinib; first compound 15.81 µM) | relative viability (BAM7 + Lapatinib; first compound 50 µM) | relative viability (BAM7 + Bortezomib; first compound 0.5 µM) | relative viability (BAM7 + Bortezomib; first compound 5 µM) | relative viability (BAM7 + Bortezomib; first compound 15.81 µM) | relative viability (BAM7 + Bortezomib; first compound 50 µM) | relative viability (BAM7 + Tozasertib; first compound 0.5 µM) | relative viability (BAM7 + Tozasertib; first compound 5 µM) | relative viability (BAM7 + Tozasertib; first compound 15.81 µM) | relative viability (BAM7 + Tozasertib; first compound 50 µM)
EMC-BAC-2 | 0.485 | 0.476 | 0.469 | 0.565 | 0.904 | 0.838 | 0.786 | 0.823 | 0.943 | 0.936 | 0.962 | 0.968 | 1.04 | 1.16 | 1.11 | 1.17 | 0.302 | 0.291 | 0.289 | 0.272
LU99A | 0.272 | 0.257 | 0.312 | 0.254 | 0.565 | 0.542 | 0.491 | 0.6 | 0.975 | 0.788 | 1.09 | 1.03 | 1.21 | 1.22 | 1.34 | 1.15 | 0.273 | 0.275 | 0.288 | 0.266
ABC-1 | 0.765 | 1.25 | 0.638 | 0.559 | 0.883 | 1.18 | 0.815 | 0.758 |  | 1.24 | 1.16 | 1.36 | 0.326 | 0.355 | 0.295 | 0.383 | 0.164 | 0.162 | 0.183 | 0.227
NCI-H2347 | 0.588 | 0.642 | 0.625 | 0.601 | 0.983 | 1.18 | 0.971 | 0.982 | 0.968 | 1.26 | 0.899 | 1.03 | 1 | 1.27 | 1.32 | 1.2 | 0.75 | 0.426 |  | 0.525
NCI-H1993 | 0.955 | 1.08 | 0.888 | 0.98 | 0.688 | 0.724 | 0.701 | 0.742 | 0.76 | 0.915 | 0.763 | 0.906 | 0.843 | 0.836 | 0.472 | 1.09 | 0.564 | 0.639 | 0.582 | 0.505
NCI-H322M | 0.762 | 0.714 | 0.654 | 0.641 | 0.892 | 0.805 | 0.949 | 0.845 | 0.659 | 0.593 | 0.577 | 0.572 | 1.2 | 1.2 | 1.05 | 1.02 | 0.481 | 0.474 | 0.523 | 0.467
NCI-H838 | 0.876 | 0.776 | 0.797 | 0.758 | 1.12 | 1.06 | 0.982 | 0.994 | 1.03 | 1.04 | 0.908 | 1.14 | 0.771 | 0.961 | 0.631 | 1.1 | 0.262 | 0.309 | 0.233 | 0.263
HARA | 0.96 | 0.838 | 0.827 | 0.809 | 1.08 | 1.14 | 0.864 | 1.08 | 0.68 | 0.777 | 0.682 | 0.793 | 1.14 | 1.26 | 1.09 | 1.14 | 0.117 | 0.116 | 0.093 | 0.0898
NCI-H2087 | 0.683 | 0.685 | 0.559 | 0.456 | 0.974 | 1.27 | 0.893 | 0.903 | 1.12 | 1.17 | 1.08 | 0.934 | 0.892 | 0.85 | 0.843 | 0.767 | 0.227 | 0.244 | 0.211 | 0.205
NCI-H1437 | 0.557 | 0.546 | 0.526 | 0.492 | 1.03 | 0.959 | 0.922 | 0.993 | 0.686 | 0.514 | 0.51 | 0.68 | 0.537 | 0.412 | 0.395 | 0.551 | 0.482 | 0.489 | 0.417 | 0.425
NCI-H650 | 0.424 | 0.363 | 0.381 | 0.368 | 0.867 | 0.95 | 0.825 | 1.19 | 0.787 | 0.92 | 0.842 | 1.13 | 0.884 | 0.948 | 0.878 | 0.885 | 0.803 | 0.861 | 0.702 | 0.796
COR-L23 | 0.379 | 0.343 | 0.332 | 0.346 | 0.979 | 0.989 | 0.852 | 0.852 | 1.28 | 1.14 | 0.914 | 1.02 | 1.03 | 1.06 | 0.845 | 0.916 | 0.177 | 0.197 | 0.133 | 0.183
COR-L 105 | 0.806 | 0.746 | 0.665 | 0.707 | 1.14 | 0.801 | 1 | 0.97 | 0.357 | 0.355 | 0.382 | 0.44 | 0.747 | 0.831 | 0.854 | 1.03 | 0.359 | 0.435 | 0.357 | 0.359
201T | 0.774 | 0.746 | 0.691 | 0.765 | 1.04 | 1.09 | 0.963 | 1.03 | 1.05 | 1.04 | 0.973 | 1.02 | 1.05 | 1.13 | 0.925 | 0.987 | 0.737 | 0.805 | 0.673 | 0.726
HCC-44 | 0.986 | 0.952 | 0.883 | 0.987 | 0.717 | 0.67 | 0.62 | 0.689 | 1.09 | 1.02 | 1 | 0.983 | 1.01 | 0.921 | 0.879 | 0.838 | 0.94 | 0.711 | 0.785 | 0.878
NCI-H596 | 0.665 | 0.625 | 0.636 | 0.697 | 1.05 | 1.15 | 1.02 | 1.14 | 0.984 | 1.14 | 1.01 | 1.12 | 1.01 | 1.13 | 0.889 | 1.25 | 1.11 | 0.936 | 0.789 | 0.9
